Tests used:
Plk1 = settings: read-out: IC50 against Plk1; cited from earlier work
HeLa cells = assay: MTS cell proliferation assay in asynchronously growing HeLa cells; assay type: cell-based, human; settings: treated 2 days

Row | Substance | IC50 (Plk1) [nM] | inhibition of cell proliferation (MTS) (HeLa cells)
1 | PLH*SpT | 17 | –
2 | PLHST | – | failed to show any detectable level of cell cytotoxicity
